Source: patent US20170022258A1, “PEPTIDES FOR USE IN THE TREATMENT OF IL-1 RELATED DISEASES AND CONDITIONS” (C4M PHARMACEUTICALS PTY LTD., priority 2011, published 2017)
Non-standard residues stand in square brackets, D forms with d. Residues, ends and D or L forms follow the SMILES beside them.

System: IL-1α+IFN-γ induced IL-8 production by HT-29 cells
Assay: IL-1α+IFN-γ induced IL-8 production by HT-29 cells
Type: cell-based, human
Description: Human colon epithelial cell lines HT-29 and Caco2 obtained from the European Collection of Animal Cell Cultures (ECACC) were used in cell cultures. Cells were routinely cultured at 37° C. in an atmosphere of 5% CO2 in 80 cm^2 tissue culture flasks in McCoy's and DMEM medium, respectively, supplemented with penicillin (10 u/ml), streptomycin (10 μg/ml), fungizone (0.5 μg/ml), and 10% (v/v) FCS (referred to as complete medium) until confluent.
Confluent monolayers were sub-cultured into 6-well plates for experimental protocols. Cells were grown in 6-well plates until confluent. Twenty-four hours prior to the experiment the confluent monolayers were washed and cultured in FCS-free McCoy's medium. Growth arrested cultures were then treated with fresh FCS-free medium and stimulated with vehicle controls or various doses of IL-1α added alone or in combination with other pro-inflammatory cytokines (TNF-α, IFN-γ) in the presence or absence of the peptide of sequence 4 or IL-1 ra, in a dose and time dependent manner.
Supernatants were collected, centrifuged to remove cellular debris and stored at −70° C. until assayed for extracellular inflammatory mediators. Total RNA for RT-PCR was extracted as described above. Cell counting and viability was routinely checked at the beginning and the end of the experiment by phase microscopy and by trypan blue exclusion using representative wells. Mycoplasma tests were performed during the experimental protocol. Production of soluble mediators was assessed by commercially available ELISA in supernatants, RT-PCR in total RNA extractants and nitric oxide, as described in Kolios, G, et al. (1995). Br J Pharmacol, 116, 2866-2872, the contents of which are incorporated herein by reference.
Stimulation of HT-29 cells with a combination of pro-inflammatory cytokines induces increased secretion of chemokines, including IL-8 (as described in Kolios, G, et al. (1999). Eur J Immunol, 29, 530-536 the contents of which are herein incorporated by reference). […]

CC(=O)N[C@H](CC(C)C)C(=O)N1CCC[C@@H]1C(=O)N[C@H](CC(C)C)C(=O)N[C@H](C)C(=O)N[C@H](Cc1ccc(O)cc1)C(=O)N1CCC[C@@H]1C(=O)N[C@H](CCC(N)=O)C(=O)N[C@H](Cc1c[nH]c2ccccc12)C(=O)N[C@H](Cc1ccc(O)cc1)C(=O)NCC(=O)N1CCC[C@@H]1C(=O)N[C@@H](C(=O)N[C@H](Cc1c[nH]c2ccccc12)C(=O)N[C@H](CCC(=O)O)C(=O)N[C@H](Cc1ccccc1)C(=O)O)[C@H](C)O [SEQ ID NO. 4, Ac-LPLAYPQWYGPTWEF] (Ac-[dL][dP][dL][dA][dY][dP][dQ][dW][dY]G[dP][dT][dW][dE][dF]-OH; C-terminus assumed)
IL-1α+IFN-γ induced IL-8 production (10 ng/ml IL-1α+300 U IFN-γ, peptide 5 ng/ml, stimulated control 78.79±6.99, n=3): 35.41±4.23 ng/ml per 106 cells | Effect on IL-1α+IFN-γ induced IL-8 production (all concentrations used, 5 ng/ml-1 μg/ml, p<0.01, FIG. 3): inhibitory effect for all concentrations used
